According to patent publication US10434112B2, “Use of agonists of formyl peptide receptor 2 for treating dermatological diseases” (Allergan, Inc., priority 2013, dated 2019):

biological target: human FPR2 receptor (Homo sapiens (Human), UniProt P25090); assay: FLIPR Ca+2 response in HEK-Gα16 cells stably expressing the human FPR2 receptor; assay type: cell-based; parameters: FPR2 (% eff): unit not given here; conditions: Table 4
Method: FLIPR: HEK-Gα16 cells stably expressing the human FPR2 receptor was utilized. Cells were plated into 384-well poly-D-lysine coated plates at a density of 18,000 cells per well one day prior to use. The growth media was DMEM medium supplemented with 10% fetal bovine serum (FBS), 1% antibiotic-antimycotic, 50 μg/ml hygromycin, and 400 μg/ml geneticin. On the day of the experiment, the cells were washed twice with Hank's Balanced Salt Solution supplemented with 20 mM HEPES (HBSS/hepes buffer). The cells were then dye loaded with 2 μM Fluo-4 diluted in the HBSS/Hepes buffer and incubated at 37° C. for 40 minutes. Extracellular dye was removed by washing the cell plates four times prior to placing the plates in the FLIPR (Fluorometric Imaging Plate Reader, Molecular Devices). Ligands were diluted in HBSS/Hepes buffer and prepared in 384-well microplates. Data for Ca^+2 responses were obtained in relative fluorescence units.

Sequence of human FPR2 receptor (P25090 whole entry): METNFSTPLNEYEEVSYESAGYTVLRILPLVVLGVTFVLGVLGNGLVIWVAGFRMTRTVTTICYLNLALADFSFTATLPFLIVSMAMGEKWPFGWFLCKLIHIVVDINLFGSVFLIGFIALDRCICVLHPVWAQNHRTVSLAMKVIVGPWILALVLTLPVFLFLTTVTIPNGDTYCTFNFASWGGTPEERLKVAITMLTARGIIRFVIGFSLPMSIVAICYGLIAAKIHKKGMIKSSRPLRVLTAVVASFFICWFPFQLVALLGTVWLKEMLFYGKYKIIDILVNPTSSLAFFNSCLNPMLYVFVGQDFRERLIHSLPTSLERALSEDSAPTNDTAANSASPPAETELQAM

| SMILES | EC50 [nM] |
| --- | --- |
| CC[C@H](C)[C@H](NC(=O)Nc1ccc(Br)cc1F)C(=O)NCC(N)=O [Compound 62, (2S,3S)-N-(2-amino-2-oxoethyl)-2-{[(4-bromo-2-fluorophenyl)carbamoyl]amino}-3-methylpentanamide] | 10.3 |
| CC(=O)CNC(=O)[C@H](Cc1ccccc1)NC(=O)Nc1ccc(Br)cc1F [Compound 68, (2S)-2-{[(4-bromo-2-fluorophenyl)carbamoyl]amino}-N-(2-oxopropyl)-3-phenylpropanamide] | 12.4 |

same assay, conditions: Table 4; value in brackets, given mostly as fraction

| SMILES | FPR2 (% eff) |
| --- | --- |
| CC(C)NC(=O)C1C(C(=O)Nc2ccc(Br)cc2)C2CCC1C21CC1 (centres unmarked) [Compound 48, N-(4-bromophenyl)-N′-(propan-2-yl)spiro[bicyclo[2.2.1]heptane-7,1′-cyclopropane]-2,3-dicarboxamide] | 1.0 |
| CCC1(CC)NC(=O)N(NC(=O)Nc2ccc(Br)cc2)C1=O [Compound 49, 1-(4-bromophenyl)-3-(4,4-diethyl-2,5-dioxoimidazolidin-1-yl)urea] | 0.98 |
| CCC1(CC)NC(=O)N(NC(=O)Nc2ccc(Br)cc2F)C1=O [Compound 50, 1-(4-bromo-2-fluorophenyl)-3-(4,4-diethyl-2,5-dioxoimidazolidin-1-yl)urea] | 1.0 |
| O=C(Nc1ccc(Br)cc1)NN1C(=O)NC2(CCCCC2)C1=O [Compound 52, 1-(4-bromophenyl)-3-(2,4-dioxo-1,3-diazaspiro[4.5]dec-3-yl)urea] | 1.0 |
| O=C(O)CNC(=O)[C@H](Cc1ccccc1)NC(=O)Nc1ccc(Br)cc1 [Compound 55, {[(2S)-2-{[(4-bromophenyl)carbamoyl]amino}-3-phenylpropanoyl]amino} acetic acid] | 0.99 |
| O=C(O)CCNC(=O)[C@H](Cc1ccccc1)NC(=O)Nc1ccc(Br)cc1 [Compound 56, 3-{[(2S)-2-{[(4-bromophenyl)carbamoyl]amino}-3-phenylpropanoyl]amino} propanoic acid] | 0.98 |
| O=C(Nc1ccc(Br)cc1)N[C@@H](Cc1ccccc1)C(=O)NCCO [Compound 58, (2S)-2-{[(4-bromophenyl)carbamoyl]amino}-N-(2-hydroxyethyl)-3-phenylpropanamide] | 0.86 |
| CC[C@H](C)[C@H](NC(=O)Nc1ccc(Br)cc1F)C(=O)NCC(=O)O [Compound 59, {[(2S,3S)-2-{[(4-bromo-2-fluorophenyl)carbamoyl]amino}-3-methylpentanoyl]amino} acetic acid] | 0.95 |
| CC[C@H](C)[C@H](NC(=O)Nc1ccc(Br)cc1)C(=O)NCC(N)=O [Compound 60, (2S,3S)-N-(2-amino-2-oxoethyl)-2-{[(4-bromophenyl)carbamoyl]amino}-3-methylpentanamide] | 0.91 |
| CCC1(C(C)C)NC(=O)N(NC(=O)Nc2ccc(Br)cc2F)C1=O (centres unmarked) [Compound 61, 1-(4-bromo-2-fluorophenyl)-3-[4-ethyl-2,5-dioxo-4-(propan-2-yl)imidazolidin-1-yl]urea] | 0.97 |
| CC[C@H](C)[C@H](NC(=O)Nc1ccc(Br)cc1F)C(=O)NCC(N)=O [Compound 62, (2S,3S)-N-(2-amino-2-oxoethyl)-2-{[(4-bromo-2-fluorophenyl)carbamoyl]amino}-3-methylpentanamide] | 100 |
| CC[C@H](C)[C@H](NC(=O)Nc1ccc(Br)cc1)C(=O)NCC(C)=O [Compound 63, (2S,3S)-2-{[(4-bromophenyl)carbamoyl]amino}-3-methyl-N-(2-oxopropyl)pentanamide] | 0.97 |
| CC(C)C1(C(C)C)NC(=O)N(NC(=O)Nc2ccc(Br)cc2)C1=O [Compound 64, 1-(4-bromophenyl)-3-[2,5-dioxo-4,4-di(propan-2-yl)imidazolidin-1-yl]urea] | 1.0 |
| O=C(Nc1ccc(Br)cc1)NN1C(=O)NC(C2CC2)(C2CC2)C1=O [Compound 65, 1-(4-bromophenyl)-3-(4,4-dicyclopropyl-2,5-dioxoimidazolidin-1-yl)urea] | 1.0 |
| CC(=O)CNC(=O)[C@H](Cc1ccccc1)NC(=O)Nc1ccc(Br)cc1F [Compound 68, (2S)-2-{[(4-bromo-2-fluorophenyl)carbamoyl]amino}-N-(2-oxopropyl)-3-phenylpropanamide] | 0.94 |
